# Test system: human lung cancer cell H460 lines
# Assay: MTT method, inhibition of growth of H460 by etoposide, vincristine, 5-fluorouracil, adriamycin and three-drug combinations; expected additive effect by equivalent dose conversion
# Type: cell-based
# Details: for Efficacy of C / Efficacy of A: from fitted single-use equation
# Excerpt: Title: there are many application schemes for a chemotherapeutic drug in lung cancer treatment. The chemotherapeutic drug in these schemes mainly includes the followings that belong to a topoisomerase inhibitor, a microtubule inhibitor, a metabolic inhibitor and an alkylating agent from types. One representative drug is successively selected from the four types of the drugs and respectively is etoposide (A), vincristine (B), 5-fluorouracil (C) and adriamycin (D). For any three combined application schemes, the inhibition effect to growth of human lung cancer cell H460 lines is detected with an MTT method. The three schemes successively are combinations of four combined drugs of A+B+C, A+B+D, A+C+D and B+C+D and the synergistic, additive and antagonistic effects are evaluated quantitatively. A:B:C=12.5:2:45 (μg/ml+μg/ml+μg/ml) A+B+C combination: A:B:D=12.5:2:4 (μg/ml+μg/ml+μg/ml) A+B+D combination: A:C:D=12.5:45:4 (μg/ml+μg/ml+μg/ml) A+C+D combination: B:C:D=2:45:4 (μg/ml+μg/ml+μg/ml) B+C+D combination:
# For the etoposide (A), vincristine (B) and 5-fluorouracil (C), dose-effect relationship data of single drugs and dose-effect relationship data in the combined use A:B:C=12.5:2:45 (μg/ml+μg/ml+μg/ml), see a table 9 and a table 10.
# Step 2, the dose is converted sequentially, and each dose-effect relationship data formed into an expected additive efficacy curve band under a combined condition is calculated.
# The equivalent dose conversion is performed on combinations of two drugs of A+B, A+C and B+C sequentially first and then the equivalent dose conversion is performed on (A+B)+C, (A+C)+B and (B+C)+A. An expression for an expected additive effect of the three drugs in the combined use is as follows.
# Y(A+B+C)=[Y(A+B)C, Y(A+C)+B, Y(B+c)+A] Hi^Lo↓, wherein Hi^Lo↓ Indicates function values of units in a number set and should be arranged from low to high. The Y(A+B+C)=[Y(A+B)+C, Y(A+C)+B, Y(B+c)+A]
# [1] = A:B:C=12.5:2:45 fixed proportion
smiles,measurement,setting,value
"O=c1[nH]cc(F)c(=O)[nH]1 [5-fluorouracil (C), 5-fluorouracil]","dose range of the additive effect, 5-fluorouracil (C)",[1],6.5815 to 19.7579 µg/mL
same,Efficacy of C,C 0.00017166 μg/ml,−2.8810%
same,Efficacy of C,C 0.00068665 μg/ml,−2.7475%
same,Efficacy of C,C 0.00274658 μg/ml,−2.3331%
same,Efficacy of C,C 0.01098633 μg/ml,−1.0631%
same,Efficacy of C,C 0.04394531 μg/ml,2.6806%
same,Efficacy of C,C 0.17578125 μg/ml,12.5608%
same,Efficacy of C,C 0.703125 μg/ml,32.4840%
same,Efficacy of C,C 2.8125 μg/ml,57.2443%
same,Efficacy of C,C 11.25 μg/ml,74.5929%
same,Efficacy of C,C 45 μg/ml,82.4752%
same,inhibition at 0.000686646 µg/mL,"Homo sapiens, NCI-H460, 5-fluorouracil (C) 0.000686646 μg/ml single use, read-out: Inhibition rate",-0.33%
same,inhibition at 0.00274658 µg/mL,"Homo sapiens, NCI-H460, 5-fluorouracil (C) 0.002746582 μg/ml single use, read-out: Inhibition rate",6.67%
same,inhibition at 0.0109863 µg/mL,"Homo sapiens, NCI-H460, 5-fluorouracil (C) 0.010986328 μg/ml single use, read-out: Inhibition rate",-3.78%
same,inhibition at 0.0439453 µg/mL,"Homo sapiens, NCI-H460, 5-fluorouracil (C) 0.043945313 μg/ml single use, read-out: Inhibition rate",-6.89%
same,inhibition at 0.175781 µg/mL,"Homo sapiens, NCI-H460, 5-fluorouracil (C) 0.17578125 μg/ml single use, read-out: Inhibition rate",7.91%
same,inhibition at 0.703125 µg/mL,"Homo sapiens, NCI-H460, 5-fluorouracil (C) 0.703125 μg/ml single use, read-out: Inhibition rate",40%
same,inhibition at 2.8125 µg/mL,"Homo sapiens, NCI-H460, 5-fluorouracil (C) 2.8125 μg/ml single use, read-out: Inhibition rate",60.8%
same,inhibition at 11.25 µg/mL,"Homo sapiens, NCI-H460, 5-fluorouracil (C) 11.25 μg/ml single use, read-out: Inhibition rate",61.4%
same,inhibition at 45 µg/mL,"Homo sapiens, NCI-H460, 5-fluorouracil (C) 45 μg/ml single use, read-out: Inhibition rate",84.5%
same,inhibition at 180 µg/mL,"Homo sapiens, NCI-H460, 5-fluorouracil (C) 180 μg/ml single use, read-out: Inhibition rate",91%
"COc1cc([C@@H]2c3cc4c(cc3[C@@H](O[C@@H]3O[C@@H]5CO[C@@H](C)O[C@H]5[C@H](O)[C@H]3O)[C@H]3COC(=O)[C@H]23)OCO4)cc(OC)c1O [Etoposide (A), etoposide]",Efficacy of A,A 0.00004768 μg/ml,−1.3189%
same,Efficacy of A,A 0.00019073 μg/ml,0.5342%
same,Efficacy of A,A 0.00076294 μg/ml,3.2432%
same,Efficacy of A,A 0.00305176 μg/ml,7.1153%
same,Efficacy of A,A 0.01220703 μg/ml,12.4756%
same,Efficacy of A,A 0.048828125 μg/ml,19.5765%
same,Efficacy of A,A 0.1953125 μg/ml,28.4535%
same,Efficacy of A,A 0.78125 μg/ml,38.7811%
same,Efficacy of A,A 3.125 μg/ml,49.8373%
same,Efficacy of A,A 12.5 μg/ml,60.6678%
same,"dose range of the additive effect, etoposide (A)",[1],1.8282 to 5.4883 µg/mL
same,inhibition at 0.000190735 µg/mL,"Homo sapiens, NCI-H460, Etoposide (A) 0.000190735 μg/ml single use, read-out: Inhibition rate",1.38%
same,inhibition at 0.000762939 µg/mL,"Homo sapiens, NCI-H460, Etoposide (A) 0.000762939 μg/ml single use, read-out: Inhibition rate",3.73%
same,inhibition at 0.00305176 µg/mL,"Homo sapiens, NCI-H460, Etoposide (A) 0.003051758 μg/ml single use, read-out: Inhibition rate",-0.19%
same,inhibition at 0.012207 µg/mL,"Homo sapiens, NCI-H460, Etoposide (A) 0.012207031 μg/ml single use, read-out: Inhibition rate",16.7%
same,inhibition at 0.0488281 µg/mL,"Homo sapiens, NCI-H460, Etoposide (A) 0.048828125 μg/ml single use, read-out: Inhibition rate",17.2%
same,inhibition at 0.195312 µg/mL,"Homo sapiens, NCI-H460, Etoposide (A) 0.1953125 μg/ml single use, read-out: Inhibition rate",30.6%
same,inhibition at 0.78125 µg/mL,"Homo sapiens, NCI-H460, Etoposide (A) 0.78125 μg/ml single use, read-out: Inhibition rate",41.5%
same,inhibition at 3.125 µg/mL,"Homo sapiens, NCI-H460, Etoposide (A) 3.125 μg/ml single use, read-out: Inhibition rate",49.6%
same,inhibition at 12.5 µg/mL,"Homo sapiens, NCI-H460, Etoposide (A) 12.5 μg/ml single use, read-out: Inhibition rate",55%
same,inhibition at 50 µg/mL,"Homo sapiens, NCI-H460, Etoposide (A) 50 μg/ml single use, read-out: Inhibition rate",74.4%

# From US11205502B2, “Processing method and processing apparatus for efficacy of combined drug” (Institute of radiation medicine, academy of military …, priority 2015, dated 2021)
